Drawing on ChEMBL document CHEMBL3853280, “Unexpected Metabolic Versatility in a Combined Fungal Fomannoxin/Vibralactone Biosynthesis” (2016), this text covers MIC for eight molecules.

Values after ≈ are worked out from the molar mass of the structure shown.

Common to all, as to assay type: functional
The subject of one assay is Aspergillus fumigatus. In words: Antifungal activity against Aspergillus fumigatus by broth dilution assay.
Assay [1] in a line: Antifungal activity against Penicillium notatum by broth dilution assay. Conditions: Penicillium chrysogenum.
The next assay relates to Trichophyton benhamiae. In words: Antifungal activity against Arthroderma benhamiae by broth dilution assay.

On to `C=C(C)COc1ccc(C(=O)OC)cc1CO`, for which the MIC is greater than 100 µg/mL with Aspergillus fumigatus, 25 µg/mL (≈ 106 µM) in assay [1] and 25 µg/mL (≈ 106 µM) in the assay on Trichophyton benhamiae.
Consider `CC1=CC=C(CC2CCOC2=O)C(=O)OC1` (centres undefined), for which the MIC in the assay on Aspergillus fumigatus is greater than 100 µg/mL; in assay [1], 25 µg/mL (≈ 112 µM); in the assay with Trichophyton benhamiae, greater than 100 µg/mL.
For the molecule `CC(=O)OCC1=C[C@@]2(CC=C(C)C)C(=O)O[C@H]2C1`, the MIC was greater than 100 µg/mL with Aspergillus fumigatus, 25 µg/mL (≈ 99.9 µM) in assay [1] and 50 µg/mL (≈ 200 µM) against Trichophyton benhamiae.
The matching figures for `COC(=O)c1ccc(OC=C(C)C)c(CO)c1`: 50 µg/mL (≈ 212 µM), 25 µg/mL (≈ 106 µM) and 6.25 µg/mL (≈ 26.5 µM).
On to `C=C(C)COc1ccc(C(=O)OC)cc1C=O`, for which the MIC with Aspergillus fumigatus was 50 µg/mL (≈ 213 µM); in assay [1], 25 µg/mL (≈ 107 µM); against Trichophyton benhamiae, 6.25 µg/mL (≈ 26.7 µM).
For `COC(=O)c1ccc(OC=C(C)C)cc1`, the MIC against Aspergillus fumigatus was greater than 100 µg/mL; in assay [1], 25 µg/mL (≈ 121 µM); with Trichophyton benhamiae, 100 µg/mL (≈ 485 µM).
The matching figures for `CC(C)=C/C=C/C=C1\CCOC1=O`: greater than 100 µg/mL, 25 µg/mL (≈ 140 µM) and 12.5 µg/mL (≈ 70.1 µM).
For the molecule `CC(C)=CC[C@@]12C=C(CO)C[C@@H]1OC2=O`, the MIC in the assay on Aspergillus fumigatus was greater than 100 µg/mL; in assay [1], 25 µg/mL (≈ 120 µM); with Trichophyton benhamiae, 50 µg/mL (≈ 240 µM).
